Earlier results in US8951728B2, “Template directed split and mix synthesis of small molecule libraries” (ChemGene Holding ApS, priority 2004, dated 2015).

Target: alphaV/beta3 integrin receptor (Homo sapiens, UniProt P05106+P06756)
Sequence (P06756 31-889 limits assumed): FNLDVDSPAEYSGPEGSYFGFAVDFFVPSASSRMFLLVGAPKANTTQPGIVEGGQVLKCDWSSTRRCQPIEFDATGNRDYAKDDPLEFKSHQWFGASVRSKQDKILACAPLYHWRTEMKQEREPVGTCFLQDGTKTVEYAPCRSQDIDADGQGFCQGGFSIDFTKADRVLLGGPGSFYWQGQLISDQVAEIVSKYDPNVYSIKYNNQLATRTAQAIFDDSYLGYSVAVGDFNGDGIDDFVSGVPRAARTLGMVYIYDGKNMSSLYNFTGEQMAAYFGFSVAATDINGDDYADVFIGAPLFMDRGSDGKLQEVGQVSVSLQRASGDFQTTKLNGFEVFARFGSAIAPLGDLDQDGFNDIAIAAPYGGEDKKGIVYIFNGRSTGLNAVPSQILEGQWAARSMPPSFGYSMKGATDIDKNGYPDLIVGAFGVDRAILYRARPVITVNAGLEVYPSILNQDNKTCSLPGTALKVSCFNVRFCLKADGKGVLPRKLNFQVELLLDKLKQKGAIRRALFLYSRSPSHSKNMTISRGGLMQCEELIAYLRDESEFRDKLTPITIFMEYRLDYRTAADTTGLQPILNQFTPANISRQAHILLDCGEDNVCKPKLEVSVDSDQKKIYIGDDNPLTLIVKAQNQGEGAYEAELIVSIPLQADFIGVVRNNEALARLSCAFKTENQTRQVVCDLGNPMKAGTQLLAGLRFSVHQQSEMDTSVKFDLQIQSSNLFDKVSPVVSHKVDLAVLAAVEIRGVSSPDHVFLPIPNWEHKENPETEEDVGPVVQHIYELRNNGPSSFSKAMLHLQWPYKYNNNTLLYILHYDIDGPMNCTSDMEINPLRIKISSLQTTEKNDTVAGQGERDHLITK
Sequence (P06756 891-1048 limits assumed): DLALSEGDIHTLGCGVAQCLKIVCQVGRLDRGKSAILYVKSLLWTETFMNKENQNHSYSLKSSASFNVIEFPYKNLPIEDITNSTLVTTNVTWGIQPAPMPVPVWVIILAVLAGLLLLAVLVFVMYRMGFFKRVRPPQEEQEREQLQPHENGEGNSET
Sequence (P05106 27-788): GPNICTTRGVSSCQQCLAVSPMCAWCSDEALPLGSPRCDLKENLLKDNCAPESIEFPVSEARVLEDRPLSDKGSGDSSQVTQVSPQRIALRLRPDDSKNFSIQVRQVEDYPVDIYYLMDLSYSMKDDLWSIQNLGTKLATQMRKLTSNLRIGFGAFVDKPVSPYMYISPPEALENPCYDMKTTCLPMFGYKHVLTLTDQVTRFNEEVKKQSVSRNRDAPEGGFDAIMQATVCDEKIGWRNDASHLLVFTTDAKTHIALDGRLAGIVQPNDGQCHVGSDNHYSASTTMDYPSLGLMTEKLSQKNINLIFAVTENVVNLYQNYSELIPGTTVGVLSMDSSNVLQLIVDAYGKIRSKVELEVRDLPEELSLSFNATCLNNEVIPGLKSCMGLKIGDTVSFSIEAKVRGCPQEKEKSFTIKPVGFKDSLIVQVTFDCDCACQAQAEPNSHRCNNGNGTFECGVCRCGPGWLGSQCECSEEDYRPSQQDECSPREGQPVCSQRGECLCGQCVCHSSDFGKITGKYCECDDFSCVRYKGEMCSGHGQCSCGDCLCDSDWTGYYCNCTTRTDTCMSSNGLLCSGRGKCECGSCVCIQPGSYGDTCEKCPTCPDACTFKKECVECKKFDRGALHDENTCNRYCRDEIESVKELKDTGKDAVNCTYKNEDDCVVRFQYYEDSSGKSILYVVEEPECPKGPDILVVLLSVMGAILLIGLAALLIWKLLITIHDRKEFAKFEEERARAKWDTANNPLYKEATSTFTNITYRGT

affinity compared to the RGD-tripeptide: ten-fold increased affinity
Kd (Feuston et al., J Med. Chem. 2002): 111 nM
SMILES: O=C(O)CC(NC(=O)CNC(=O)CCCc1ccc2c(n1)NCCC2)C(=O)O (centres unmarked) [Feuston 5]
